Results from paper PMC9182202 (Molecules, 2022).
Values after ≈ are worked out from the molar mass of the structure shown.

Key:
[1] = tested on: voltage-dependent Ca^2+ channels; assay: Ca2+ concentration-response curves in Ca2+-free medium, rabbit jejunum; conditions: Ca^2+-free medium, Sarcorucinine-D 10–30 µg/mL, verapamil 0.05–0.5 µg/mL
Description: Another set of confirmatory experiments was also performed to be sure of any potential CCB activity. For this, the regular Tyrode’s physiological salt solution in which the tissues were originally immersed was removed. The baths were filled with a Ca^2+–free Tyrode’s solution with EDTA (0.1 mM). The tissues were left in this solution for half an hour. Later, another replacement was carried out using K^+-rich and Ca^2+-free Tyrode’s solution. The tissues were again left to stabilize for half an hour, and then, the control concentration–response curves of Ca^2+ were constructed and recorded. These control Ca^2+ concentration–response curves were duplicated after pretreatment of the tissues for one hour with different concentrations of Sarcorucinine-D. Any possible CCB effect of Sarcorucinine-D would tend to displace the Ca^2+ concentration–response curves to the right-hand side. The effects of Sarcorucinine-D were compared to those of a standard CCB, verapamil.

[2] = biological target: T1, Torpedo californica AChE (TcAChE) (Tetronarce californica, UniProt P04058); assay: biochemical; conditions: mean ± SEM of three experiments
T1 construct: purchased Sigma-Aldrich Corporation
Description: (§1) The enzyme activity was measured in vitro via a modified spectrophotometric method developed by Ellman et al.. Acetylthiocholine iodide (ATCh) and butyrylthiocholine chloride (BTCh) were used as substrates for the AChE and BChE enzymes, respectively. Ellman reagent, i.e., 5,5-dithiobis (2-nitro) benzoic acid (DTNB), was used to produce the chromogenic indicator for the measurement of the ChE activity using a SpectraMax microplate spectrophotometer (Molecular Devices, CA, USA), as reported previously.
(§2) The IC50 values were calculated using the EZ-Fit program (Perrella Scientific Inc., Amherst, MA, USA). Lineweaver–Burk plots, Dixon plots, and their secondary replots were used to observe the effects of the compound on the values of Km and Vmax. Dixon plots, Lineweaver–Burk plots, and the secondary replots of Lineweaver–Burk plots were used to determine Ki values using initial velocities. […] The graphical analysis of the Dixon plots, Lineweaver–Burk plots, and their secondary plots was used to determine the inhibition type.

[3] = tested on: urease; assay: Selectivity screen: urease inhibition; type: biochemical
[4] = tested on: MDBK cells; assay: MTT cytotoxicity test; conditions: MDBK, MTT, concentration range 0.019–1.56 μg/mL, 72 h
Description: (§3) The MTT (3-[4,5-dimethylthazol-2-yl]-2,5-diphenyltetrazolium bromide) test was performed using MDBK adherent cells.

[5] = MTT cytotoxicity test; conditions: bovine, MDBK adherent cells
Description: as §3

[6] = tested on: α-glucosidase
Description: (§4) To test the selectivity of the compound, Sarcorucinine-D was also tested for the inhibition of several other enzymes such as phosphodiesterase, α-glucosidase, β-glucuronidase, and urease enzymes. The assays of these enzymes are reported elsewhere.

[7] = tested on: phosphodiesterase
Description: as §4

[8] = tested on: β-glucuronidase; assay: Selectivity screen: β-glucuronidase inhibition; type: biochemical
[9] = biological target: T2, BChE (horse serum) (Equus caballus, UniProt P81908); assay: biochemical; type: biochemical
T2 construct: purchased Sigma-Aldrich Corporation; host or cells: horse serum
Description: as §1, §2

T2 sequence (P81908 whole entry): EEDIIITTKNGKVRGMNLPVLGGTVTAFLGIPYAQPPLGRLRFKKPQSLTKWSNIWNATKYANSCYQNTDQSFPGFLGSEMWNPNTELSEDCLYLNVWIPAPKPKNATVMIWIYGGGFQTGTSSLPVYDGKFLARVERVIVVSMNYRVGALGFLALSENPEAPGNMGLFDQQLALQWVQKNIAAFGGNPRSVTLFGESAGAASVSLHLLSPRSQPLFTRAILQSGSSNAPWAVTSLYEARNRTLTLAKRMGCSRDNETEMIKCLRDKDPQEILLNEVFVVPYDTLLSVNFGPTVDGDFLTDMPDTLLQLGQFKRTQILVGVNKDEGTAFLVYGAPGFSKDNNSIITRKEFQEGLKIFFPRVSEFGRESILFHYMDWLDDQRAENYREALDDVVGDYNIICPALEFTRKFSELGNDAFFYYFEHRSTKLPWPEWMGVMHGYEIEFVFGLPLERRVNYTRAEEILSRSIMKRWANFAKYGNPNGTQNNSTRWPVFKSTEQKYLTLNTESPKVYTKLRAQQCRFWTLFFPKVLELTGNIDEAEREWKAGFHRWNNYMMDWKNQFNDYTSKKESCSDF
T1 sequence (P04058 22-586): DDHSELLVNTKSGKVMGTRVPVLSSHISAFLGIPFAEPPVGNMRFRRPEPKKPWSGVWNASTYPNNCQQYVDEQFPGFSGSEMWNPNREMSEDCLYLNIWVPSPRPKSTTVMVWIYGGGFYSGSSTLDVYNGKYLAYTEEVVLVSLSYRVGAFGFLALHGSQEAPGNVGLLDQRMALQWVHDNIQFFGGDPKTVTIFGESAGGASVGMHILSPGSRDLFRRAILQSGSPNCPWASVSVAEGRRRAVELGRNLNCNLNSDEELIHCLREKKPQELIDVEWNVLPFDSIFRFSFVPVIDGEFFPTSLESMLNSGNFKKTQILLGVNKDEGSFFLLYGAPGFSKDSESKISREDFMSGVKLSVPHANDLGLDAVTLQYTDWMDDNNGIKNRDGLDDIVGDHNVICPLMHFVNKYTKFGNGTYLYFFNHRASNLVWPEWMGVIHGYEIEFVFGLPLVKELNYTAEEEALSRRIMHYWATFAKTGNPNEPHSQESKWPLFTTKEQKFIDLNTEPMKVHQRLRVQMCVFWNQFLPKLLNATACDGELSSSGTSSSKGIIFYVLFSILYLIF

Row | Structure (SMILES) | Effect on CaCl2 concentration–response curves [1] | Ki ([2]; from Dixon plot, Lineweaver–Burk plot and secondary replots, read-out: Acetylcholinesterase Ki) [µM] | IC50 ([2]; read-out: Acetylcholinesterase IC50) [µM] | Selectivity screen result, urease [3] | Cytotoxic effect at low concentrations [4] | IC50 at 72 h [5] [µg/mL] | Selectivity screen result, α-glucosidase [6] | Selectivity screen result, phosphodiesterase [7] | Selectivity screen result, β-glucuronidase [8] | IC50 [9] [µM] | Ki [9] [µM] | Selectivity toward BChE over AChE ([9]; from the data of Table 1)
1 | COc1ccc(CCN(C)CCCC(C#N)(c2ccc(OC)c(OC)c2)C(C)C)cc1OC (stereo not shown) [verapamil, reference compound] | displaced the CaCl2 curves to the right | – | – | – | – | – | – | – | – | – | – | –
2 | CC(C1CCC2C3CCC4CC(O)CCC4(C)C3CCC21C)N(C)C (stereo not shown) [Sarcorucinine-D] | displaced the CaCl2 curves to the right | 103 ± 6.67 | 42.9 ± 3.13 | selective ChE inhibitor | No cytotoxic effect | 2.24 (≈ 6.44 µM) | selective ChE inhibitor | selective ChE inhibitor | selective ChE inhibitor | 8.87 ± 0.56 | 4.66 ± 0.3 | approximately 22 times
